We go through 22 molecules from PubChem BioAssay AID328 (DTP/NCI, 2004).

“And” between values parts separate entries of the source, which are not always exact repeats. Equal entries are not always repeated. Inconclusive results and toxic doses are left out.

The subject of this experiment is BDF1 mice, P388 leukemia ip, median survival T/C. Nature of the experiment: NCI In Vivo Anticancer Drug Screen. Data for tumor model P388 Leukemia (intraperitoneal) in B6D2F1 (BDF1) mice. Conditions: endpoint: median survival time, higher = longer survival. In outline: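 Vehicle-dosed animals serve as the reference; survival of compound-dosed, tumour-implanted mice is divided by it.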

The mark [1] stands for this setting: dose: 100.0 mg/kg/injection, schedule: Q01DX009 (ip), vehicle: saline with Tween-80.
The mark [2] stands for this setting: dose: 200.0 mg/kg/injection, schedule: Q01DX009 (ip), vehicle: saline with Tween-80.
Where [3] appears, read: dose: 400.0 mg/kg/injection, schedule: Q01DX009 (ip), vehicle: saline with Tween-80.
The mark [4] stands for this setting: dose: 50.0 mg/kg/injection, schedule: Q01DX009 (ip), vehicle: saline with Tween-80.
[5] abbreviates: dose: 100.0 mg/kg/injection, schedule: Q04DX003 (ip), vehicle: saline with Tween-80.
The mark [6] stands for this setting: dose: 200.0 mg/kg/injection, schedule: Q04DX003 (ip), vehicle: saline with Tween-80.
Setting [7] is: dose: 400.0 mg/kg/injection, schedule: Q04DX003 (ip), vehicle: saline with Tween-80.
Setting [8] is: dose: 25.0 mg/kg/injection, schedule: Q01DX009 (ip), vehicle: saline.
The mark [9] stands for this setting: dose: 50.0 mg/kg/injection, schedule: Q04DX003 (ip), vehicle: saline with Tween-80.
Setting [10] is: dose: 1.56 mg/kg/injection, schedule: Q01DX009 (ip), vehicle: saline.
[11] abbreviates: dose: 3.12 mg/kg/injection, schedule: Q01DX009 (ip), vehicle: saline.
[12] abbreviates: dose: 6.25 mg/kg/injection, schedule: Q01DX009 (ip), vehicle: saline.
Where [13] appears, read: dose: 12.5 mg/kg/injection, schedule: Q01DX009 (ip), vehicle: saline.

`CCn1c2ccc(N)cc2c2c3[nH]c(=O)c4cccn4c3ccc21`: the T/C was 100 % of control (dose: 100.0 mg/kg/injection, schedule: Q04DX002 (ip), vehicle: saline with Tween-80) and 92 % of control (dose: 200.0 mg/kg/injection, schedule: Q04DX002 (ip), vehicle: saline with Tween-80).

Regarding `CC(=O)OCC(OC(C)=O)C(OC(C)=O)C(OC(C)=O)C1COC(C)(C)O1` (stereo not drawn), the T/C was 94 % of control (dose: 75.0 mg/kg/injection, schedule: Q01DX009 (ip), vehicle: saline with Tween-80); 86 % of control (dose: 150.0 mg/kg/injection, schedule: Q01DX009 (ip), vehicle: saline with Tween-80); 91 % of control (dose: 300.0 mg/kg/injection, schedule: Q01DX009 (ip), vehicle: saline with Tween-80).

As for `O=c1ccc2ccccc2o1`, the T/C is, setting by setting: (dose: 50.0 mg/kg/injection, schedule: Q01DX010 (ip), vehicle: saline) 100 % of control; (dose: 100.0 mg/kg/injection, schedule: Q01DX010 (ip), vehicle: saline) 90 % of control; (dose: 200.0 mg/kg/injection, schedule: Q01DX010 (ip), vehicle: saline) 90 % of control; (dose: 400.0 mg/kg/injection, schedule: Q01DX010 (ip), vehicle: saline) 95 % of control.

Regarding `CCC1(C(C)Br)OC2=C(CC(C#N)(C#N)C(C#N)(C#N)C2)O1` (stereo not drawn), the T/C (dose: 12.0 mg/kg/injection, schedule: Q01DX001 (ip), vehicle: Klucel (hydroxypropylcellulose) (HPC)) is 116 % of control; the T/C (dose: 25.0 mg/kg/injection, schedule: Q01DX001 (ip), vehicle: Klucel (hydroxypropylcellulose) (HPC)) was 104 % of control; the T/C (dose: 50.0 mg/kg/injection, schedule: Q01DX001 (ip), vehicle: Klucel (hydroxypropylcellulose) (HPC)) was 100 % of control.

Consider `CN(C)C(=O)C1CCC1`, for which the T/C by setting is: under setting [1], 104 % of control; under setting [2], 90 % of control; under setting [3], 113 % of control.

For the molecule `CC1CN1P(=O)(N1CC2CCC(CC2)C1)N1CC1C` (stereo not drawn), the T/C is 113 % of control (dose: 14.0 mg/kg/injection, schedule: Q01DX009 (ip), vehicle: saline with Tween-80); 122 % of control (dose: 21.0 mg/kg/injection, schedule: Q01DX009 (ip), vehicle: saline with Tween-80); 159 % of control (dose: 33.0 mg/kg/injection, schedule: Q01DX009 (ip), vehicle: saline with Tween-80); 154 % of control under setting [4]; 86 % of control under setting [1].

Regarding `COC(=O)C12N=NN(c3ccccc3)C1(C(=O)OC)C1CCC2C1` (stereo not drawn), the T/C was 100 % of control under setting [5], 100 % of control under setting [6] and 91 % of control under setting [7].

As to `CC1CN(Cc2ccccc2O)CC(C)N1` (stereo not drawn), the T/C runs as follows: (dose: 6.25 mg/kg/injection, schedule: Q04DX003 (ip), vehicle: water) 103 % of control; (dose: 12.5 mg/kg/injection, schedule: Q04DX003 (ip), vehicle: water) 103 % of control; (dose: 25.0 mg/kg/injection, schedule: Q04DX003 (ip), vehicle: water) 103 % of control; (dose: 50.0 mg/kg/injection, schedule: Q04DX003 (ip), vehicle: water) 109 % of control; (dose: 100.0 mg/kg/injection, schedule: Q04DX003 (ip), vehicle: water) 97 % of control.

Take `Cc1cc2nc3ccc(=[N+](C)C)cc-3sc2cc1N`: the T/C is 90 % of control and 113 % of control under setting [8]; 109 % of control and 96 % of control (dose: 25.0 mg/kg/injection, schedule: Q04DX003 (ip), vehicle: saline); 100 % of control and 113 % of control (dose: 50.0 mg/kg/injection, schedule: Q01DX009 (ip), vehicle: saline); 114 % of control (dose: 50.0 mg/kg/injection, schedule: Q04DX003 (ip), vehicle: saline); 121 % of control (dose: 100.0 mg/kg/injection, schedule: Q04DX003 (ip), vehicle: saline).

Regarding `CCOC(=O)CC/C(=C/c1ccccc1)[N+](=O)[O-]`, the T/C (dose: 25.0 mg/kg/injection, schedule: Q04DX003 (ip), vehicle: saline with Tween-80) is 110 % of control; the T/C under setting [9] was 106 % of control; the T/C under setting [5] is 119 % of control.

`C[N+](C)(CC(=O)Nc1ccc(Cl)c(C(F)(F)F)c1)CC(=O)c1ccc(Cl)c(Cl)c1`: the T/C (dose: 200.0 mg/kg/injection, schedule: Q04DX003 (ip), vehicle: saline sonified) is 100 % of control and the T/C (dose: 400.0 mg/kg/injection, schedule: Q04DX003 (ip), vehicle: saline sonified) was 104 % of control.

`C=C(C)COC(N)=O`: the T/C under setting [1] was 108 % of control, the T/C under setting [2] was 104 % of control and the T/C under setting [3] was 87 % of control.

`N#Cc1cnc2n(c1=N)CCCCC2`: the T/C (dose: 100.0 mg/kg/injection, schedule: Q04DX003 (ip), vehicle: Klucel (hydroxypropylcellulose) (HPC)) was 94 % of control.

On to `CC(=O)Nc1ccc(S(=O)(=O)Oc2ccc([N+](=O)[O-])cc2)cc1`, for which the T/C is, setting by setting: under setting [10], 96 % of control; under setting [11], 112 % of control; under setting [12], 107 % of control; under setting [13], 93 % of control; under setting [8], 92 % of control and 103 % of control.

In the case of `CC(=O)[C@H]1CC[C@H]2[C@@H]3C[C@H](C)C4=CC(=O)CC[C@]4(C)[C@H]3[C@@H](O)C[C@]12C`, the T/C by setting is: under setting [5], 107 % of control; under setting [6], 100 % of control.

As to `C=CCCCCCCCCCCCCCC`, the T/C is 104 % of control (dose: 145.0 mg/kg/injection, schedule: Q01DX010 (ip), vehicle: saline); 113 % of control (dose: 220.0 mg/kg/injection, schedule: Q01DX010 (ip), vehicle: saline); 104 % of control (dose: 330.0 mg/kg/injection, schedule: Q01DX010 (ip), vehicle: saline); 118 % of control (dose: 500.0 mg/kg/injection, schedule: Q01DX010 (ip), vehicle: saline).

As for `O=[N+]([O-])c1ccc(CCSCCc2ccc([N+](=O)[O-])cc2)cc1`, the T/C by setting is: (dose: 50.0 mg/kg/injection, schedule: Q01DX005 (ip), vehicle: Klucel (hydroxypropylcellulose) (HPC)) 104 % of control; (dose: 100.0 mg/kg/injection, schedule: Q01DX005 (ip), vehicle: Klucel (hydroxypropylcellulose) (HPC)) 97 % of control; (dose: 200.0 mg/kg/injection, schedule: Q01DX005 (ip), vehicle: Klucel (hydroxypropylcellulose) (HPC)) 94 % of control.

For the molecule `CC(=S)Nc1ccc2ccccc2c1`, the T/C is, setting by setting: under setting [1], 107 % of control; under setting [5], 118 % of control; under setting [2], 107 % of control; under setting [6], 109 % of control; under setting [3], 119 % of control; under setting [7], 122 % of control.

On to `CC1=CC2C(C3C=CC2(C)C(=O)C3(C)Cc2ccccc2)C(C)(Cc2ccccc2)C1=O` (stereo not drawn), for which the T/C (dose: 100.0 mg/kg/injection, schedule: Q01DX001 (ip), vehicle: Klucel (hydroxypropylcellulose) (HPC)) is 95 % of control; the T/C (dose: 200.0 mg/kg/injection, schedule: Q01DX001 (ip), vehicle: Klucel (hydroxypropylcellulose) (HPC)) was 95 % of control; the T/C (dose: 400.0 mg/kg/injection, schedule: Q01DX001 (ip), vehicle: Klucel (hydroxypropylcellulose) (HPC)) was 90 % of control.

For the molecule `C[N+](C)=C1C=CC(=C2C=CSC=C2)C=C1`, the T/C is 117 % of control under setting [10], 124 % of control under setting [11], 123 % of control under setting [12] and 100 % of control under setting [13].

As to `C[Si]1(C)CCCSC1`, the T/C is 89 % of control (dose: 12.5 mg/kg/injection, schedule: Q01DX009 (ip), vehicle: saline with Tween-80); 91 % of control (dose: 25.0 mg/kg/injection, schedule: Q01DX009 (ip), vehicle: saline with Tween-80); 93 % of control under setting [4]; 103 % of control under setting [1].

In the case of `O=CNC(Cc1cccc(N(CCCl)CCCl)c1)C(=O)O` (stereo not drawn), the T/C (dose: 11.0 mg/kg/injection, schedule: Q04DX003 (ip), vehicle: saline sonified) is 94 % of control; the T/C (dose: 16.5 mg/kg/injection, schedule: Q04DX003 (ip), vehicle: saline sonified) was 100 % of control; the T/C (dose: 25.0 mg/kg/injection, schedule: Q04DX003 (ip), vehicle: saline sonified) is 122 % of control; the T/C under setting [9] was 177 % of control; the T/C under setting [5] is 272 % of control.
